Data from publication PMC5298231, “The Malaria Parasite's Lactate Transporter PfFNT Is the Target of Antiplasmodial Compounds Identified in Whole Cell Phenotypic Screens” (PLoS Pathogens, 2017).
Entries after “also recorded” stand apart in the source; their conditions may differ. Like-named read-outs stand apart in the source and are kept apart here.

How the values were obtained:
[1] = test system: MMV007839-selected culture B (PfFNT Gly107Ser); experiment: Parasite proliferation assay, MMV007839-selected culture B; assay type: cell-based, Plasmodium falciparum; details: read-out: IC50 value, growth inhibition
Procedure: (§1) Parasite proliferation was measured in 96-well plates using a fluorescent DNA-intercalating dye. The assays were initiated with erythrocytes infected with predominantly ring-stage parasites, and the starting parasitaemia was 0.5–1% and the haematocrit was 1%.
(§2) For MMV007839-selected culture A, the drug concentration was increased by 5 nM increments on Day 18, Day 21, and every two days thereafter. […] The cultures were provided with fresh medium and blood and diluted to reduce the parasitaemia as needed.

[2] = test system: MMV007839-selected culture A (PfFNT Gly107Ser); experiment: Parasite proliferation assay, MMV007839-selected culture A; assay type: cell-based, Plasmodium falciparum; details: for IC50: MMV007839-selected culture A, mean ± SEM, read-out: IC50 value, growth inhibition
Procedure: as §1, §2

Dd2 parent parasites = experiment: Parasite proliferation assay, Dd2 parent; assay type: cell-based, Plasmodium falciparum
Procedure: Parasite proliferation was measured in 96-well plates using a fluorescent DNA-intercalating dye [45]. The assays were initiated with erythrocytes infected with predominantly ring-stage parasites, and the starting parasitaemia was 0.5–1% and the haematocrit was 1%.

3D7 parasites = details: cited from earlier work
[3] = ref [36]; cited from earlier work
[4] = test system: 3D7 P. falciparum trophozoites; experiment: Cytosolic pH (pHcyt) measurement in BCECF-loaded saponin-isolated trophozoites
Dd2 parental parasites = experiment: L-[14C]lactate uptake by isolated Dd2 parental parasites; details: pH 6.1, 4°C
non-injected oocytes = assay type: cell-based, Xenopus laevis; details: full range of inhibitor concentrations
native PfFNT = target: T1, native PfFNT (Plasmodium falciparum, UniProt O77389); assay type: cell-based; details: native PfFNT in Xenopus oocytes; pH 6.4, 27.5°C, 10 min; mean ± SEM, n = 4; read-out: IC50, inhibition of PfFNT-mediated L-[14C]lactate transport
T1 construct: expressed in transfected cells; host or cells: Xenopus laevis oocytes (cRNA microinjected, 30 ng)
T1 sequence (O77389 whole entry): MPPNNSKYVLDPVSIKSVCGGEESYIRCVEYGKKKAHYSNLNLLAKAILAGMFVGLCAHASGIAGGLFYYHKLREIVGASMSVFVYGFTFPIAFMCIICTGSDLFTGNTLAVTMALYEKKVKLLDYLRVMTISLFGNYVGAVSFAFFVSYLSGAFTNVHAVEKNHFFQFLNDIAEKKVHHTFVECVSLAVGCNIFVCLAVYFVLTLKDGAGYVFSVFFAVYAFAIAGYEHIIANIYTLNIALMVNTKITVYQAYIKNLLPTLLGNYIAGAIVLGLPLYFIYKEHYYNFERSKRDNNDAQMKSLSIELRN
Procedure: (§3) The PfFNT-mediated uptake of L-[^14C]lactate by oocytes expressing native PfFNT (black symbols) or oocytes expressing PfFNT^Gly107Ser (white symbols) was measured in the presence of a range of different concentrations of MMV007839 (A) and MMV000972 (B). […] To enable a visual comparison between the native PfFNT and PfFNT^Gly107Ser datasets, only part of the concentration range used for the latter is shown in the main panels. The insets show the data obtained for PfFNT^Gly107Ser over the full concentration range tested. In all cases, the data are averaged from four independent experiments (using oocytes from different frogs) and are shown ± SEM. The uptake was measured at 27.5°C over 10 min at pH 6.4 using 2.7 μM L-[^14C]lactate and 600 μM unlabelled L-lactate.
(§4) The oocyte expression vectors containing PfFNT, PfENT1 and PfCRT were made previously. […] The uptake of radiolabelled substrates was measured 2–5 days post-injection at 27.5°C in ND96 buffer (containing 96 mM NaCl, 2 mM KCl, 1 mM MgCl2, 1.8 mM CaCl2, 10 mM MES and 10 mM Tris-base; pH-adjusted to the value specified in the relevant Figure legends). […] The oocytes were then transferred to separate wells of a 96-well plate, lysed with 10% SDS, and the radioactivity measured as described previously.

[5] = test system: PfFNT^Gly107Ser mutant parasites (MMV007839-selected culture B); experiment: L-[14C]lactate uptake by isolated PfFNT Gly107Ser mutant parasites
[6] = test system: isolated 3D7 P. falciparum trophozoites; experiment: L-[14C]lactate uptake by isolated 3D7 trophozoites; details: pH 6.1, 4°C
PfENT1 = experiment: [3H]hypoxanthine uptake by Xenopus oocytes expressing PfENT1; assay type: cell-based, Plasmodium falciparum
Source text: (§5) (PfCRT; from the chloroquine-resistant Dd2 strain) and on [^3H]hypoxanthine transport by oocytes expressing the P. falciparum equilibrative nucleoside/nucleobase transporter PfENT1 [27, 28].
The oocyte expression vectors containing PfFNT, PfENT1 and PfCRT were made previously. The Gly107Ser mutant form of PfFNT was generated through site-directed mutagenesis of the oocyte expression vector containing wild-type (3D7) PfFNT using primers 9 and 10 (S2 Table). Oocytes were harvested from adult female Xenopus laevis frogs and prepared as described previously. cRNA was made using the mMessage mMachine T7 transcription kit and the MEGAclear kit (Ambion) and microinjected into oocytes as outlined elsewhere. The amount of cRNA injected (per oocyte) was 30 ng for PfFNT, 10 ng for PfENT1, and 20 ng for PfCRT. The uptake of radiolabelled substrates was measured 2–5 days post-injection at 27.5°C in ND96 buffer (containing 96 mM NaCl, 2 mM KCl, 1 mM MgCl2, 1.8 mM CaCl2, 10 mM MES and 10 mM Tris-base; pH-adjusted to the value specified in the relevant Figure legends). […] Each experiment used ten oocytes for each condition tested. The influx of the radiolabelled substrate was halted by removing the reaction buffer and washing the oocytes twice in ice-cold ND96 buffer (3.5 mL). The oocytes were then transferred to separate wells of a 96-well plate, lysed with 10% SDS, and the radioactivity measured as described previously.
The data are averaged from four to five independent experiments (performed using oocytes from different frogs) and are shown + SEM. In B, the uptake of [^3H]hypoxanthine (0.36 μM) was measured over 30 min at pH 6.0. […] The data are averaged from three to six independent experiments (performed using oocytes from different frogs) and are shown + SEM. […] (TIF) Click here for additional data file.

[7] = test system: PfCRT (from the chloroquine-resistant Dd2 strain); experiment: [3H]chloroquine uptake by Xenopus oocytes expressing PfCRT; assay type: cell-based, Plasmodium falciparum; details: 1 μM and 4 μM; pH 5.5
Source text: as §5
The oocyte expression vectors containing PfFNT, PfENT1 and PfCRT were made previously. The Gly107Ser mutant form of PfFNT was generated through site-directed mutagenesis of the oocyte expression vector containing wild-type (3D7) PfFNT using primers 9 and 10 (S2 Table). Oocytes were harvested from adult female Xenopus laevis frogs and prepared as described previously. cRNA was made using the mMessage mMachine T7 transcription kit and the MEGAclear kit (Ambion) and microinjected into oocytes as outlined elsewhere. […] The uptake of radiolabelled substrates was measured 2–5 days post-injection at 27.5°C in ND96 buffer (containing 96 mM NaCl, 2 mM KCl, 1 mM MgCl2, 1.8 mM CaCl2, 10 mM MES and 10 mM Tris-base; pH-adjusted to the value specified in the relevant Figure legends). […] The oocytes were then transferred to separate wells of a 96-well plate, lysed with 10% SDS, and the radioactivity measured as described previously.
The data are averaged from four to five independent experiments (performed using oocytes from different frogs) and are shown + SEM. In B, the uptake of [^3H]hypoxanthine (0.36 μM) was measured over 30 min at pH 6.0. […]

PfFNT^Gly107Ser = target: T2, PfFNT^Gly107Ser (Plasmodium falciparum, UniProt O77389, G107S); experiment: PfFNT-mediated L-[14C]lactate uptake by Xenopus oocytes expressing PfFNT Gly107Ser; assay type: cell-based; details: PfFNT Gly107Ser in Xenopus oocytes; pH 6.4, 27.5°C, 10 min; mean ± SEM, n = 4; read-out: IC50, inhibition of PfFNT-mediated L-[14C]lactate transport
T2 construct: expressed in transfected cells; host or cells: Xenopus laevis oocytes (cRNA microinjected, 30 ng)
T2 sequence (O77389 1-309 G107S): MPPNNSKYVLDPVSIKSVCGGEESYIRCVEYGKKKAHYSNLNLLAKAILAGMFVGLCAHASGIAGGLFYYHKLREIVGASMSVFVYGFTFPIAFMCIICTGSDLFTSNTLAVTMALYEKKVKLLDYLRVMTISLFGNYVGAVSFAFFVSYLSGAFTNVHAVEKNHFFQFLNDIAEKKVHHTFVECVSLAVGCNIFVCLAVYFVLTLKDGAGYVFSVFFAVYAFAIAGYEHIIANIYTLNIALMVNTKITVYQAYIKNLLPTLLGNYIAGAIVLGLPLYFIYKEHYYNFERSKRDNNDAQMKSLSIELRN
Procedure: as §3, §4

[8] = ref [1] Van Voorhis et al. 2016, read-out: IC50 for killing of 3D7 parasites

SMILES: C[C@@H]1CC[C@H]2[C@@H](C)C(=O)O[C@@H]3O[C@@]4(C)CC[C@@H]1[C@]32OO4 [Artemisinin, reference compound]
- IC50 ([1]; Plasmodium falciparum): 16.5 ± 0.4 nM
- IC50 ([2]; Plasmodium falciparum): 22 ± 3.3 nM
- Response of MMV007839-selected cultures compared with Dd2 parental parasites ([2]; both MMV007839-selected cultures (A and B), P > 0.1): not significantly different; also recorded: not affecting
- IC50 (Dd2 parent parasites; Plasmodium falciparum, DD2, read-out: IC50 value, growth inhibition): 15.6 nM

SMILES: CC(C)OCc1cc(CN2CCN(c3cccc(Cl)c3)CC2)c(O)c2ncccc12 [MMV000788]
- IC50 (3D7 parasites; [8]): 700 nM

SMILES: O=C1CC(O)(C(F)(F)C(F)(F)F)Oc2ccccc21 (stereo not shown) [MMV000972]
- IC50 (3D7 parasites; ref http://www.mmv.org/research-development/malaria-box-supporting-information, read-out: IC50 against 3D7 parasites, other groups): 2600 nM
- Toxicity in Malaria Box toxicity testing [3]: display toxicity in some assays
- Lactate-induced abrupt acidification of parasite cytosol after pre-treatment ([4]; 2.5 μM pre-treatment, 10 mM L-lactate, 4°C): no such abrupt acidification
- Rate of cytosolic acidification after addition of lactate ([4]; 2.5 μM, 4°C, 10 mM L-lactate, mean ± SEM, n = 3): 0.015 ± 0.006 pH unit/min
- Rate of cytosolic acidification before addition of lactate ([4]; 2.5 μM, 4°C, mean ± SEM, n = 3): 0.012 ± 0.003 pH unit/min
- Cytosolic pH restored after restoration of glucose ([4]; 2.5 μM, glucose (22 mM) restored to glucose-deprived parasites, gradual alkalinisation after initial acidification of ~2 min): approximately 7.1
- Effect on cytosolic pH in glucose-containing medium ([4]; glucose-containing medium, 37°C (Fig 2B,C: 1 μM)): cytosolic acidification
- IC50 (Dd2 parental parasites; read-out: IC50, inhibition of L-[14C]lactate uptake, Dd2 (parental) parasites, 20 s, mean ± SEM): 49 ± 14 nM
- Effect on L-[14C]lactate transport into control (non-injected) oocytes (non-injected oocytes): no changes
- IC50 ([1]; MMV007839-selected culture B, mean ± SEM): 59700 ± 1400 nM
- IC50 [2]: 59600 ± 400 nM
- Fold increase of growth IC50 relative to Dd2 parent ([2]; both MMV007839-selected cultures (A and B) vs Dd2 parent): > 30 fold
- IC50 (native PfFNT): 50 ± 1 nM
- IC50 ([5]; read-out: IC50, inhibition of L-[14C]lactate transport, pH 6.1, 4°C, 20 s, mean ± SEM): 15200 ± 1900 nM
- IC50 (Dd2 parent parasites; Dd2 parent, mean ± SEM, read-out: IC50 value, growth inhibition): 1800 ± 200 nM
- Inhibition of L-[14C]lactate influx ([6]; 0.5 μM, 20 s): complete inhibition
- Inhibition of L-[14C]lactate uptake ([6]; 2 μM, 20 s): complete inhibition
- Inhibition of [3H]hypoxanthine uptake by PfENT1-expressing oocytes (PfENT1; 1 μM and 4 μM, pH 6.0, 30 min): not inhibiting
- Effect on [3H]hypoxanthine uptake by PfENT1-expressing oocytes (PfENT1; 1 μM, P < 0.05): slight increase
- Effect on transport of [3H]chloroquine via PfCRT [7]: not inhibiting
- IC50 (PfFNT^Gly107Ser): 6300 ± 900 nM

SMILES: Brc1ccc(Nc2nc3ccccc3nc2Nc2ccc(Br)cc2)cc1 [MMV007224]
- IC50 (3D7 parasites; [8]): 1060 nM

SMILES: Cc1ccc(Nc2nc(-c3ccccn3)cs2)cc1 [MMV007907]
- IC50 (3D7 parasites; [8]): 350 nM

SMILES: Cc1cccc(-n2ncc3c(O)nc(-n4nc(C)cc4NC(=O)c4cc5ccccc5o4)nc32)c1 [MMV403679]
- IC50 (3D7 parasites; [8]): 930 nM

SMILES: FC(F)(F)c1cccc(Nc2nc3ccccc3nc2Nc2cccc(C(F)(F)F)c2)c1 [MMV665794]
- IC50 (3D7 parasites; [8]): 310 nM

SMILES: O=C(Nc1ccc(Cl)c(Cl)c1)Nc1ccc(Cl)c(Cl)c1 [MMV665852]
- IC50 (3D7 parasites; [8]): 1160 nM

SMILES: CCCCNc1nc(NC(C)(C)C)nc(NC(C)(C)C)n1 [MMV665864]
- IC50 (3D7 parasites; [8]): 710 nM

SMILES: O=C(Nc1nc(-c2ccccn2)cs1)c1ccccc1Br [MMV665909]
- IC50 (3D7 parasites; [8]): 1360 nM

SMILES: O=C(Nc1ccc(F)c(Cl)c1)Nc1ccc(Cl)c(Cl)c1 [MMV665953]
- IC50 (3D7 parasites; [8]): 2060 nM

SMILES: O=C(Cc1ccccc1)NC(c1ccc(Cl)cc1)c1c(O)ccc2ccccc12 (stereo not shown) [MMV665972]
- IC50 (3D7 parasites; [8]): 1140 nM

SMILES: CCCCCCc1cc(O)c2c3c(c(=O)oc2c1)CCC(C)C3 (stereo not shown) [MMV665987]
- IC50 (3D7 parasites; [8]): 530 nM

SMILES: O=C(NC(c1ccccc1)c1ccc2cccnc2c1O)c1ccccc1 (stereo not shown) [MMV666080]
- IC50 (3D7 parasites; [8]): 1170 nM

SMILES: O=C(O)c1cc([N+](=O)[O-])ccc1NCCCc1ccccc1 [NPPB, reference compound]
- Effect on rate of L-[14C]lactate influx (Dd2 parental parasites; 100 μM, parental parasites): reduced the rate
- Effect on rate of L-[14C]lactate influx ([5]; 100 μM, pH 6.1, 4°C): reduced the rate
- L-[14C]lactate distribution ratio at 20 s ([6]; 50 μM, control (DMSO) 6.7 ± 0.4, mean ± SEM): 0.4 ± 0.1
